Reference: ChEMBL document CHEMBL1201862, “PubChem BioAssay data set” (2004)
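Step 1: Grow cells in 96-well plates. Step 2: Expose to compound for 48 hours at 5 concentrations. Step 3: Interpolate endpoints linearly; if unreached, use highest concentration. At the GI50, growth is halved.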 Activity calls are given as the source filed them. No stated cut-off is given here; in the data, active = GI50 up to about 1.1 µM and inactive = higher.

Tests used:
Test in all cases: DTP human tumour cell line panel, 48 h
[1] = tested on: HCT-15
[2] = tested on: MDA-MB-231
[3] = tested on: RPMI-8226
[4] = tested on: SK-MEL-5
[5] = tested on: HOP-62
[6] = tested on: Malme-3M
[7] = tested on: 786-0
[8] = tested on: M14
[9] = tested on: OVCAR-4
[10] = tested on: COLO 205
[11] = tested on: SF-539
[12] = tested on: HT-29
[13] = tested on: SR
[14] = tested on: UACC-62
[15] = tested on: DU-145
[16] = tested on: NCI-H226
[17] = tested on: UO-31
[18] = tested on: TK-10
[19] = tested on: OVCAR-8

Measured: GI50

FC(F)(F)c1nc2ccc(SSc3ccc4nc(C(F)(F)F)[nH]c4c3)cc2[nH]1
inactive: [2] 23 µM | [3] 25.1 µM | [4] 45.9 µM | [5] 31.6 µM | [6] > 10 µM | [7] 50.5 µM | [8] 94.2 µM | [9] 61.5 µM | [10] 33.9 µM | [11] 41.8 µM | [12] > 10 µM | [13] 30.7 µM | [14] 73.8 µM | [15] > 10 µM | [16] > 10 µM | [17] 31.6 µM | [18] 79.3 µM | [19] 92.3 µM
93.5 µM: [1]

C[N+]1(C)CCOC(O)(c2ccccc2)C1 (stereo unspecified)
inactive: [2] > 100 µM | [3] > 100 µM | [4] > 100 µM | [5] > 100 µM | [6] > 100 µM | [7] > 100 µM | [8] > 100 µM | [9] > 100 µM | [10] > 100 µM | [11] > 100 µM | [12] > 100 µM | [13] > 100 µM | [14] > 100 µM | [15] > 100 µM | [16] > 100 µM | [17] > 100 µM | [18] > 100 µM | [19] > 100 µM
> 100 µM: [1]

[N-]=[N+]=CC(=O)OC1CCOCC1
> 100 µM: [1]
inactive: [2] > 100 µM | [3] > 100 µM | [4] > 100 µM | [5] > 100 µM | [6] > 100 µM | [7] > 100 µM | [9] > 100 µM | [10] > 100 µM | [12] > 100 µM | [13] > 100 µM | [14] > 100 µM | [15] > 100 µM | [16] > 100 µM | [17] > 100 µM | [18] > 100 µM

C=C1CC[C@@]2(OC1)OC1C[C@H]3[C@@H]4CC=C5C[C@@H](O)CC(OC6OCC(OC(=O)[C@@H](O)[C@@H](C)CC)C(OC(C)=O)C6OC6OC(C)C(O)C(O)C6O)[C@]5(C)[C@H]4CC[C@]3(C)C1[C@@H]2C (stereo partly specified)
inactive: [2] 1.75 µM | [3] 2.09 µM | [4] 1.97 µM | [6] 3.84 µM | [7] 1.82 µM | [8] 2.11 µM | [9] 2.81 µM | [10] 2.11 µM | [11] 2.31 µM | [12] 2.82 µM | [13] 2.07 µM | [14] 1.77 µM | [15] 2.07 µM | [16] 2.64 µM | [17] 2.4 µM | [18] 1.88 µM | [19] 2.16 µM
1.91 µM: [1]

CCOc1ccc(N2C(=O)NC3(c4ccccc4)N(C)C(=O)N(C)C23c2ccccc2)cc1 (stereo unspecified)
inactive: [2] 83.6 µM | [3] 57.1 µM | [4] 68.9 µM | [5] > 100 µM | [6] > 100 µM | [7] > 100 µM | [8] > 100 µM | [10] > 100 µM | [11] > 100 µM | [12] 94.2 µM | [13] > 100 µM | [14] 86.3 µM | [15] > 100 µM | [16] 61 µM | [17] 92.9 µM | [19] 61.1 µM

CC1(C)CC(=O)c2c(N)n[nH]c2C1
inactive: [2] > 100 µM | [3] > 100 µM | [4] > 100 µM | [5] > 100 µM | [6] > 100 µM | [7] > 100 µM | [8] > 100 µM | [9] > 100 µM | [10] > 100 µM | [11] > 100 µM | [12] > 100 µM | [13] > 100 µM | [14] > 100 µM | [15] > 100 µM | [16] > 100 µM | [17] > 100 µM | [19] > 100 µM

CCOC(=O)NN(C(=O)OCC)C(C(=O)C1=CCCCC1)N(NC(=O)OCC)C(=O)OCC
inactive: [2] > 100 µM | [3] > 100 µM | [4] > 100 µM | [5] > 100 µM | [6] > 100 µM | [7] > 100 µM | [8] > 100 µM | [9] > 100 µM | [10] > 100 µM | [11] 9.57 µM | [12] > 100 µM | [13] > 100 µM | [15] > 100 µM | [16] > 100 µM | [17] > 100 µM | [18] > 100 µM | [19] > 100 µM
> 100 µM: [1]

COc1ccc2nc3cc(Cl)ccc3c(NCCCCCC(=O)NC(COc3cnc4c(ccc5cccnc54)c3)COc3cnc4c(ccc5cccnc54)c3)c2c1
inactive: [2] 6.34 µM | [3] 5.65 µM | [5] 15.7 µM | [6] 34.9 µM | [7] 11 µM | [8] 77.1 µM | [9] 7.28 µM | [10] 2.79 µM | [11] 10.9 µM | [12] 5.45 µM | [13] 2.76 µM | [14] 21.4 µM | [15] 11.3 µM | [16] 4.73 µM | [17] 74.5 µM | [18] 27.5 µM | [19] 31.4 µM
> 100 µM: [1]
